Source: article PMC3100590 (Journal of medicinal chemistry, 2011)
Like-named read-outs stand apart in the source and are kept apart here.

Assays:
dopamine D1 receptors = dopamine D1 receptors (Homo sapiens, UniProt P21728); assay: Dopamine D1 receptor binding; conditions: data not shown
[1] = molecular target: T1, human D3 dopamine receptor (D3R) (Homo sapiens, UniProt P35462); assay type: binding; conditions: for decrease of D3R binding affinity on replacing the amide by the amine linker: amine analogue vs corresponding amide (13b vs 19; 15b vs 8j); for D2/D3: ratio of Ki values
T1 sequence (P35462 whole entry): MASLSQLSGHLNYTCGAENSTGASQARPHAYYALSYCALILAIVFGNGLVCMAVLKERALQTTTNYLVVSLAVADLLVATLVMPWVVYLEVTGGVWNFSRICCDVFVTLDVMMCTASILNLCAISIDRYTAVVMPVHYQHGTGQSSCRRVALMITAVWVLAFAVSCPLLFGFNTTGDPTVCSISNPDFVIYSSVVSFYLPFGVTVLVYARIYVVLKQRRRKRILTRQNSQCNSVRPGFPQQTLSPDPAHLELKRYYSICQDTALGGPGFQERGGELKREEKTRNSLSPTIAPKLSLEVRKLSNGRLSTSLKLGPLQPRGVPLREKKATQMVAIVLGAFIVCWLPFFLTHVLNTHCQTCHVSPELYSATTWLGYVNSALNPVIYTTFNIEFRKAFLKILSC

hD3 (D3R) = hD3 (D3R) (Homo sapiens, UniProt P35462); assay: Quinpirole-induced mitogenesis assay in hD3-transfected CHOp cells; assay type: cell-based
hD3 (D3R), sequence (P35462 whole entry): as above

[2] = molecular target: human D2L dopamine receptor (D2R) (Homo sapiens, UniProt P14416); assay type: binding; conditions: for Ki: read-out: D2R Ki ± S.E.M., Table 2, HEK 293 hD2LR, 125I-IABN
human D2L dopamine receptor (D2R), sequence (P14416 whole entry): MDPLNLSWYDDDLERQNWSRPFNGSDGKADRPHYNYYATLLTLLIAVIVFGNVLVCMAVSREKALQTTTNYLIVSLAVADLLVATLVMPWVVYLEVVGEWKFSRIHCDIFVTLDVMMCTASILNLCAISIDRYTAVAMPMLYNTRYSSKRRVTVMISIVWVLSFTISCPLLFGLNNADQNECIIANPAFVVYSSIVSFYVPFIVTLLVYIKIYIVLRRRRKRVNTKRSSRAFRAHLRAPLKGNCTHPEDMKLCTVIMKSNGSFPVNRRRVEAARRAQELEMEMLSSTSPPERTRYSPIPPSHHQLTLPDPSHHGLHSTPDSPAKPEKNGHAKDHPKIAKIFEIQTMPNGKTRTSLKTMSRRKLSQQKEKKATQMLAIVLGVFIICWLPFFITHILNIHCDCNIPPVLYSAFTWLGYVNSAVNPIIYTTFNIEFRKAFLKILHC

[3] = molecular target: T1, human D3 dopamine receptor (D3R); conditions: Table 2; previously reported, ref [6]; cited from earlier work

dopamine D1 receptors, sequence (P21728 whole entry): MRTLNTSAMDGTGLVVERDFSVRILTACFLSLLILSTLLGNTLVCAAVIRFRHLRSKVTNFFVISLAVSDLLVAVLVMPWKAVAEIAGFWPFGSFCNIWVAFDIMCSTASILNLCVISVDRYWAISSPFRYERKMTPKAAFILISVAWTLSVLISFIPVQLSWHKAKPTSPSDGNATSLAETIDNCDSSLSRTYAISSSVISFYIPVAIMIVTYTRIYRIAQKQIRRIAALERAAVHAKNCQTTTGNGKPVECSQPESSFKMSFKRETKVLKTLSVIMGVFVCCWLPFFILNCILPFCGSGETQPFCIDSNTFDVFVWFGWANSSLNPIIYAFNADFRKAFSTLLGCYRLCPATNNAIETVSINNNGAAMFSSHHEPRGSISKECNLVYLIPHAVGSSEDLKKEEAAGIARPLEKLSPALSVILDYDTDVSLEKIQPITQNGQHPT

O=C(NCCC(F)CN1CCN(c2cccc(Cl)c2Cl)CC1)c1cc2ccccc2o1 (centres unmarked) [Compound 8d, N-(4-(4-(2,3-Dichlorophenyl)piperazin-1-yl)-3-fluorobutyl)benzofuran-2-carboxamide]
binding at dopamine D1 receptors (dopamine D1 receptors): selectivity over D1

O=C(NCCC(F)CN1CCN(c2cccc(Cl)c2Cl)CC1)c1cc2ccccc2[nH]1 (centres unmarked) [Compound 8h, N-(4-(4-(2,3-Dichlorophenyl)piperazin-1-yl)-3-fluorobutyl)-1H-indole-2-carboxamide]
D3R-selectivity over D2R [1]: > 130 fold

COc1ccccc1N1CCN(CC(F)CCNC(=O)c2ccc3c(c2)Cc2ccccc2-3)CC1 (centres unmarked) [Compound 8i, N-(3-Fluoro-4-(4-(2-methoxyphenyl)piperazin-1-yl)butyl)-9H-fluorene-2-carboxamide]
binding at dopamine D1 receptors (dopamine D1 receptors): selectivity over D1

O=C(NCCC(F)CN1CCN(c2cccc(Cl)c2Cl)CC1)c1ccc2c(c1)Cc1ccccc1-2 (centres unmarked) [Compound 8j, N-(4-(4-(2,3-Dichlorophenyl)piperazin-1-yl)-3-fluorobutyl)-9H-fluorene-2-carboxamide]
D3R-selectivity over D2R [1]: > 1000 fold
binding at dopamine D1 receptors (dopamine D1 receptors): selectivity over D1

COc1ccccc1N1CCN(CC(F)CCNC(=O)c2cc3ccccc3s2)CC1 (centres unmarked) [Compound 8k, N-(3-Fluoro-4-(4-(2-methoxyphenyl)piperazin-1-yl)butyl)benzo[b]thiophene-2-carboxamide]
D3R-selectivity over D2R [1]: > 60 fold

O=C(NCCC(F)CN1CCN(c2cccc(Cl)c2Cl)CC1)c1cc2ccccc2s1 (centres unmarked) [Compound 8l, N-(4-(4-(2,3-Dichlorophenyl)piperazin-1-yl)-3-fluorobutyl)benzo[b]thiophene-2-carboxamide]
D3R-selectivity over D2R [1]: > 130 fold

COc1ccc2[nH]c(C(=O)NCCC(F)CN3CCN(c4ccccc4OC)CC3)cc2c1 (centres unmarked) [Compound 8m, N-(3-Fluoro-4-(4-(2-methoxyphenyl)piperazin-1-yl)butyl)-5-methoxy-1H-indole-2-carboxamide]
D3R-selectivity over D2R [1]: > 60 fold

COc1ccc2[nH]c(C(=O)NCCC(F)CN3CCN(c4cccc(Cl)c4Cl)CC3)cc2c1 (centres unmarked) [Compound 8n, N-(4-(4-(2,3-Dichlorophenyl)piperazin-1-yl)-3-fluorobutyl)-5-methoxy-1H-indole-2-carboxamide]
D3R-selectivity over D2R [1]: > 130 fold
EC50 (hD3 (D3R)): 0.0049 µM
functional profile in the D3R mitogenesis assay (hD3 (D3R)): more potent partial agonist than an antagonist
D3 mitogenesis % stimulation (hD3 (D3R); agonist mode, value in parentheses): 14.9%

CN(CCC(F)CN1CCN(c2cccc(Cl)c2Cl)CC1)Cc1ccc2c(c1)Cc1ccccc1-2 (centres unmarked) [Compound 15b, N-((9H-Fluoren-2-yl)methyl)-4-(4-(2,3-dichlorophenyl)piperazin-1-yl)-3-fluoro-N-methylbutan-1-amine]
D2R binding affinity increased on replacing the amide by the amine linker ([2]; 15b vs amide 8j): ~ 2 fold
decrease of D3R binding affinity on replacing the amide by the amine linker [1]: 150 fold

COc1ccccc1N1CCN(CCCCNC(=O)c2ccc3c(c2)Cc2ccccc2-3)CC1 [Compound 18, N-(4-(4-(2-methoxyphenyl)piperazin-1-yl)butyl)-9H-fluorene-2-carboxamide]
D2/D3 [3]: 185

N-(Benzo[b]thiophen-2-ylmethyl)-4-(4-(2,3-dichlorophenyl)piperazin-1-yl)-N-propylbutan-1-amine [Compound 13b]
D2R binding affinity reduced on replacing the amide by the amine linker ([2]; 13b vs amide 19): 2.5 fold
Ki [2]: 0.162 ± 0.0012 µM
D3R-selectivity over D2R [1]: 2 fold
D2/D3 ([1]; Table 2): 2
decrease of D3R binding affinity on replacing the amide by the amine linker [1]: 126 fold

N-(Benzo[b]thiophen-2-ylmethyl)-4-(4-(2-methoxyphenyl)piperazin-1-yl)-N-propylbutan-1-amine [Compound 13a]
Ki [2]: 0.0699 ± 0.0073 µM
D2/D3 ([1]; Table 2): 1
Ki ([1]; read-out: D3R Ki ± S.E.M., Table 2, HEK 293 hD3R, 125I-IABN): 0.0679 ± 0.0024 µM
